One block for each compound: values may come before it.
Legend:
[1] = tested on: human endometrial adenocarcinoma Ishikawa cells; test: Estrogenic and anti-estrogenic activities in vitro: induction of alkaline phosphatase (APase) activity; assay type: cell-based; details: for EC50: Homo sapiens, Ishikawa, 96 h, compound alone, four days, ND = not detected, read-out: Estrogenic activity EC50 (nM) ± S.E.M; for estrogenic effect in alkaline phosphatase activity in the Ishikawa cell model: in words
Description: The estrogenic and anti-estrogenic potentials of new compounds were evaluated using the induction of alkaline phosphatase (APase) activity, an estrogen specific response in human endometrial adenocarcinoma Ishikawa cells (Botella J., J Steroid Biochem Molec Biol, 1995, 55: 77-84; Littlefield et al., Endocrinology, 1990, 127: 2757-2762).
Ishikawa cells were routinely grown as monolayers in Dulbecco's Modified Eagle's medium (DMEM) containing 4 mM Glutamax I and supplemented with 10% of decomplemented fetal calf serum (dFCS) and antibiotics. They were maintained in a humidified atmosphere of 5% CO2 and 95% air, at 37±0.1° C. Stocks were performed once a week to maintain continuous exponential growth.
For studies, Ishikawa cells were plated into 96-well microplates. The next day, the medium was changed to a phenol red-free DMEM containing 5% dFCS stripped of endogenous estrogens by dextran coated charcoal treatment.
At the end of the incubation period, APase activity was assayed by a method involving the hydrolysis of p-nitrophenyl phosphate to p-nitrophenol at pH 9.8 and spectrophotometric determination of the product at 405 nm.
In brief, the microplates were first rinsed twice with cold phosphate buffered solution and then placed at −80° C. for at least 15 minutes. After thawing at room temperature for 5-10 minutes, the plates were put on ice and 50 μl ice-cold solution containing 5 mM p-nitrophenyl phosphate was added to each well. The plates were warmed to room temperature to allow for the development of the enzymatic reaction (t0). After a 15 to 60 minute incubation period, the intensity of the yellow color generated by the production of p-nitrophenol was measured into each well at 405 nm using a microplate reader (Wallac, model 1420 Victor^2). […] Sigmoidal dose-response curves were plotted and EC50 (estrogenic effect) and IC50 (anti-estrogenic effect) values were calculated for each compound.

[2] = molecular target: T1, purified full-length recombinant human ERα (Homo sapiens, UniProt P03372); test: Estrogen receptor α competitive radiometric binding assay ([3H]-E2); details: for RBA (%) Mean ± S.E.M, ER α: ratio of IC50s of E2 and competitor, E2 set at 100%
T1 sequence (P03372 1-595): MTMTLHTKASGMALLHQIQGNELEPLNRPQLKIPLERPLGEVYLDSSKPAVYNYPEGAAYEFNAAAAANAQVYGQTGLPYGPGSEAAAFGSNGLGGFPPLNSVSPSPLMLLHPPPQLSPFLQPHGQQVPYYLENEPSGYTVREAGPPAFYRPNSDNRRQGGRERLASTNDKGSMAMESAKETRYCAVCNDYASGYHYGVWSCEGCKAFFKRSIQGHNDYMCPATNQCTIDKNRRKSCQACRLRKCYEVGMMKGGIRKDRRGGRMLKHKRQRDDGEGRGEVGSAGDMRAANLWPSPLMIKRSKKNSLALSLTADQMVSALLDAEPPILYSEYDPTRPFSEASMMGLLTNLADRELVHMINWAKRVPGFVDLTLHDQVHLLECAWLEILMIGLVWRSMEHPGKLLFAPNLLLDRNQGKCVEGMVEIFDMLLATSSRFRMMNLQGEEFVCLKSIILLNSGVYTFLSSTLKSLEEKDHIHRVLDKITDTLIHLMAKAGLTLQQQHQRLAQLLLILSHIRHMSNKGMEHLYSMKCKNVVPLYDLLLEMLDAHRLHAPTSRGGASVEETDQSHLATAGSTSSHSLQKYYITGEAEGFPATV
Description: (§1) Relative binding affinities (RBA) were determined by competitive radiometric binding assays, using purified full-length recombinant human ERα and ERβ (PanVera, Madison, Wis.). […] After shaking for a few seconds and centrifugation at 1500 g and 4° C. for 10 minutes, 150 μl/well of Optiphase ‘Super Mix’ scintillation liquid was mixed with 50 μl of supernatant of each sample and the radioactivity was measured in a MicroBeta counter (Wallac, Turku, Finland). Data were evaluated by a sigmoidal dose-response curve (Prism, GraphPad Software Inc.) to estimate the concentration of competitor at half-maximal specific binding (IC50). […] The selectivity for ERα and ERβ was obtained from the ratio R of the IC50 for ERα to the IC50 for ERβ for each test compound.

[3] = tested on: human breast cancer cell line MCF-7; test: Proliferative activity in vitro (ATP luminescence, 6 days); assay type: cell-based; details: Homo sapiens, MCF7, 144 h; for activity at 1 µM: MCF-7, 10^−6 M, read-out: Effect at 10^−6 M (% of control); for activity at 1 µM / activity at 0.01 µM: six days; for activity at 0.01 µM: MCF-7, 10^−8 M, read-out: Effect at 10^−8 M (% of control); for EC50: MCF-7, six days, read-out: Cell proliferation EC50 (nM) ± S.E.M
Description: The proliferative effect of the compounds of the invention was evaluated on human breast cancer cell line MCF-7 by measuring the number of viable cells after 6 days of treatment.
MCF-7 cells were routinely cultured as monolayers in Dulbecco's modified Eagle's medium (DMEM) containing 4 mM Glutamax and 4.5 g/l glucose and supplemented with 5% (v/v) decomplemented fetal calf serum (dFCS) and antibiotics.
Cells were plated at 2.10^6 cells/75 cm^2 flasks and incubated at 37° C. in a humidified atmosphere containing 5% CO2. They were passaged once weekly to maintain continuous exponential growth. Forty eight hours before the start of an experiment, near-confluent cells were changed to a phenol red free DMEM containing 5% steroid-stripped dFCS by dextran coated charcoal treatment (DCC-DMEM). On the day of the experiment, cells were harvested by brief exposure to trypsin and plated in DCC-DMEM in 96-well microplates at a density of 4.10^3 cells/well. The next day, the medium was renewed and test compounds, diluted appropriately in estrogen-free DMEM, were added and incubated for six days. […] At the end of the incubation period, cell proliferation was evaluated by quantitation of the cellular ATP content which signals the presence of metabolically active cells.
The assay, based on the ATP-dependent luciferase reaction, enables generation of a luminescent signal proportional to the amount of ATP present. As there is a linear relationship between the amount of ATP and the number of viable cells present in culture, the luminescent signal allowed to precisely evaluate cell proliferation (Crouch, S. P. M. et al. J. Immunol. Meth., 1993, 160, 81; Kangas, L. et al. Med. Biol. 1984, 62, 338; Petty, R. D. et al. J. Biolum. Chemilum. 1995, 10, 29).
In brief, the microplates were inverted to discard the culture medium and 100 μl of fresh medium was added into each well. The microplates were equilibrated at room temperature for approximately 30 minutes. 100 μl of luciferase reagent was added into each well and contents were mixed for 2 minutes to induce cell lysis. The plates were incubated at room temperature for 10 minutes to stabilize luminescence signal.
Luminescence was recorded using a microplate reader (Wallac, model 1420 Victor^2) and results were expressed as percentage of the control luminescence. Sigmoidal dose-response curves were plotted and EC50 values were calculated for each compound in order to evaluate their proliferative potency.

Prepubescent female rats = test: Estrogenic / uterotrophic activity in vivo (uterus wet weight); parameters: species or system rat; details: Rattus norvegicus, po, 72 h, Table 4; orally 3 mg/rat/day for 3 days; read-out: % stimulation vs vehicle (uterus weight)
Description: Prepubescent female rats were orally treated at 3 mg/rat/day for 3 days. On the day following the last treatment, uteri were removed and wet weights were recorded.
The results are expressed as % of stimulation of uterus weight in comparison with vehicles. […]
Prepubescent female rats were orally treated with 0.3; 1; 3 or 10 mg/rat/day for 3 days. On the day following the last treatment, uteri were removed and wet weights were recorded.

[4] = molecular target: purified full-length recombinant human ERβ (Homo sapiens, UniProt Q92731); test: Estrogen receptor β competitive radiometric binding assay ([3H]-E2); details: for RBA (%) Mean ± S.E.M, ER β: ratio of IC50s of E2 and competitor, E2 set at 100%; for R (IC50s) αβ: ratio of the IC50 for ERα to the IC50 for ERβ; for selectivity for the human recombinant estrogen receptor β: in words
Sequence of purified full-length recombinant human ERβ (Q92731 whole entry): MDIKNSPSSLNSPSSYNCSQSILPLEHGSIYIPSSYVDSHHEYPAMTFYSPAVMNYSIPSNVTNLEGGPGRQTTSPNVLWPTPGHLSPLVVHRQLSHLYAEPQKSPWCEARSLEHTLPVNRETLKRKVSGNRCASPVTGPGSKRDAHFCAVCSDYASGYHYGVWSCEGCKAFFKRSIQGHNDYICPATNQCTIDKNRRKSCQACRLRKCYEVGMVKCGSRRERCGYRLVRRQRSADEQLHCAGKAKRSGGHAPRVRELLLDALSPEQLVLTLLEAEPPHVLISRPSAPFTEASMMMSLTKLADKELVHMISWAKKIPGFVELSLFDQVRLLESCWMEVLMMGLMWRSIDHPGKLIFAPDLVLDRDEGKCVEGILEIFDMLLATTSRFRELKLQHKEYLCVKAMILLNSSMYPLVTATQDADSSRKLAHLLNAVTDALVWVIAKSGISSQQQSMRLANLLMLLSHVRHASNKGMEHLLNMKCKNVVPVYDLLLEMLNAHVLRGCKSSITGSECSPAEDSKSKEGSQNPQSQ
Description: as §1

- melting point: 152 °C
- EC50 [1]: 322 ± 20 nM
- IC50 [2]: 2300 ± 446 nM
- RBA (%) Mean ± S.E.M, ER α [2]: 0.1 ± 0.03%
- EC50 [3]: 77.9 ± 4.1 nM
- IC50 [4]: 123 ± 25.9 nM
- selectivity for the human recombinant estrogen receptor β [4]: marked selectivity
- RBA (%) Mean ± S.E.M, ER β [4]: 2.5 ± 0.4%
- R (IC50s) αβ [4]: 18.7
Structure (SMILES): N#CC(Cc1ccc(F)cc1)c1noc2cc(O)ccc12 (stereo not drawn) [Ex 84, 2-(6-hydroxy-1,2-benzisoxazol-3-yl)-3-(4-fluorophenyl) propanenitrile]
- estrogenic effect in alkaline phosphatase activity in the Ishikawa cell model [1]: weak estrogenic effect
- activity at 1 µM [3]: 286%
- activity at 0.01 µM [3]: 97%
- change in vivo at 3 mg (Prepubescent female rats): 24%

- melting point: 154 °C
- IC50 [2]: 1890 ± 365 nM
- RBA (%) Mean ± S.E.M, ER α [2]: 0.2 ± 0.03%
- EC50 [3]: 466 ± 34 nM
- IC50 [4]: 135 ± 31 nM
- selectivity for the human recombinant estrogen receptor β [4]: marked selectivity
- RBA (%) Mean ± S.E.M, ER β [4]: 2.4 ± 0.4%
- R (IC50s) αβ [4]: 14.1
Structure (SMILES): N#CC(Cc1ccc(O)c(O)c1)c1noc2cc(O)ccc12 (stereo not drawn) [Ex 86, 2-(6-hydroxy-1,2-benzisoxazol-3-yl)-3-(3,4-dihydroxyphenyl) propanenitrile]
- estrogenic effect in alkaline phosphatase activity in the Ishikawa cell model [1]: weak estrogenic effect
- activity at 1 µM [3]: 139%
- activity at 0.01 µM [3]: 85.6%
- change in vivo at 3 mg (Prepubescent female rats): 25%

- melting point: 190 °C
- EC50 [1]: 124 ± 8.9 nM
- IC50 [2]: 88.6 ± 11.7 nM
- RBA (%) Mean ± S.E.M, ER α [2]: 1.3 ± 0.2%
- EC50 [3]: 16.1 ± 2.6 nM
- IC50 [4]: 37.8 ± 5.4 nM
- selectivity for the human recombinant estrogen receptor β [4]: marked selectivity
- RBA (%) Mean ± S.E.M, ER β [4]: 5.1 ± 0.8%
- R (IC50s) αβ [4]: 2.3
Structure (SMILES): Oc1ccc2c(C3CCCCC3)nsc2c1 [Ex 93, 3-cyclohexyl-1,2-benzisothiazol-6-ol]
- estrogenic effect in alkaline phosphatase activity in the Ishikawa cell model [1]: weak estrogenic effect
- activity at 1 µM [3]: 156%
- activity at 0.01 µM [3]: 116%
- change in vivo at 3 mg (Prepubescent female rats): 88%

Second part, the compound before the results:

Structure (SMILES): Oc1ccc2c(C3CCCCC3)n[nH]c2c1 [Ex 24, 3-cyclohexyl-1H-indazol-6-ol]
- melting point: 147 °C
- EC50 [1]: 136.3 ± 1.2 nM
- IC50 [2]: 159 ± 23.7 nM
- RBA (%) Mean ± S.E.M, ER α [2]: 1.2 ± 0.2%
- activity at 1 µM [3]: 143%
- activity at 0.01 µM [3]: 89.9%
- EC50 [3]: 18.5 ± 1.8 nM
- change in vivo at 3 mg (Prepubescent female rats): 101%
- IC50 [4]: 10.2 ± 0.9 nM
- RBA (%) Mean ± S.E.M, ER β [4]: 24.6 ± 4.3%
- R (IC50s) αβ [4]: 15.6

Structure (SMILES): NS(=O)(=O)n1nc(C2CCCCC2)c2ccc(O)cc21 [Ex 40, 3-cyclohexyl-6-hydroxy-1H-indazole-1-sulfonamide]
- melting point: 162 °C
- EC50 [1]: 132 ± 4.7 nM
- IC50 [2]: 1480 ± 1180 nM
- RBA (%) Mean ± S.E.M, ER α [2]: 0.1 ± 0.02%
- activity at 1 µM [3]: 152%
- activity at 0.01 µM [3]: 107%
- EC50 [3]: 11.5 ± 2.8 nM
- change in vivo at 3 mg (Prepubescent female rats): 41%
- IC50 [4]: 188 ± 34 nM
- RBA (%) Mean ± S.E.M, ER β [4]: 1.0 ± 0.2%
- R (IC50s) αβ [4]: 7.9

Structure (SMILES): Oc1ccc2c(C3CCCCCC3)noc2c1 [Ex 65, 3-cycloheptyl-1,2-benzisoxazol-6-ol]
- melting point: 156 °C
- EC50 [1]: 51.7 ± 6.2 nM
- IC50 [2]: 75.3 ± 5.4 nM
- RBA (%) Mean ± S.E.M, ER α [2]: 2.5 ± 0.6%
- activity at 1 µM [3]: 260%
- activity at 0.01 µM [3]: 123%
- EC50 [3]: 27.6 ± 2 nM
- change in vivo at 3 mg (Prepubescent female rats): 84%
- IC50 [4]: 20.2 ± 4.2 nM
- RBA (%) Mean ± S.E.M, ER β [4]: 13.2 ± 3.1%
- R (IC50s) αβ [4]: 3.7

Structure (SMILES): Oc1ccc2c(C3CCCCC3)noc2c1 [Ex 66, 3-cyclohexyl-1,2-benzisoxazol-6-ol]
- melting point: 181 °C
- EC50 [1]: 221 ± 14 nM
- estrogenic effect in alkaline phosphatase activity in the Ishikawa cell model [1]: weak estrogenic effect
- IC50 [2]: 260 ± 40.1 nM
- RBA (%) Mean ± S.E.M, ER α [2]: 1.1 ± 0.2%
- activity at 1 µM [3]: 149%
- activity at 0.01 µM [3]: 100%
- EC50 [3]: 25.4 ± 4 nM
- change in vivo at 3 mg (Prepubescent female rats): 31%
- IC50 [4]: 44.6 ± 7.7 nM
- selectivity for the human recombinant estrogen receptor β [4]: marked selectivity
- RBA (%) Mean ± S.E.M, ER β [4]: 9.4 ± 3.1%
- R (IC50s) αβ [4]: 5.8

Structure (SMILES): Oc1ccc(Cc2noc3cc(O)ccc23)cc1 [Ex 73, 3-(4-hydroxybenzyl)-1,2-benzisoxazol-6-ol]
- estrogenic effect in alkaline phosphatase activity in the Ishikawa cell model [1]: weak estrogenic effect
- IC50 [2]: 2910 ± 318 nM
- RBA (%) Mean ± S.E.M, ER α [2]: 0.1 ± 0.0%
- activity at 1 µM [3]: 134%
- activity at 0.01 µM [3]: 94.2%
- EC50 [3]: 365 ± 126 nM
- change in vivo at 3 mg (Prepubescent female rats): 52%
- IC50 [4]: 485 ± 158 nM
- selectivity for the human recombinant estrogen receptor β [4]: marked selectivity
- RBA (%) Mean ± S.E.M, ER β [4]: 1.0 ± 0.3%
- R (IC50s) αβ [4]: 6.0

Structure (SMILES): N#CC(Cc1ccc(O)cc1)c1noc2cc(O)ccc12 (stereo not drawn) [Ex 80, 2-(6-hydroxy-1,2-benzisoxazol-3-yl)-3-(4-hydroxyphenyl) propanenitrile]
- EC50 [1]: 147 ± 39.9 nM
- IC50 [2]: 67.5 ± 5 nM
- RBA (%) Mean ± S.E.M, ER α [2]: 3.4 ± 0.4%
- activity at 1 µM [3]: 147%
- activity at 0.01 µM [3]: 110%
- EC50 [3]: 45.2 ± 25.6 nM
- change in vivo at 3 mg (Prepubescent female rats): 70%
- IC50 [4]: 7.5 ± 0.7 nM
- RBA (%) Mean ± S.E.M, ER β [4]: 43.0 ± 7.8%
- R (IC50s) αβ [4]: 9.0
